# Test: Storage stability of dry pharmaceutical grade malathion, HPLC (Example 18)
# Type: physicochemical
# Protocol: Purity was determined using a high performance liquid chromatography (HPLC) instrument with a variable wavelength detector.
# Isomalathion content was determined using a high performance liquid chromatography (HPLC) instrument with a variable wavelength detector.
# Four (4) samples of Dry Pharmaceutical Grade Malathion from Example 16, each weighing about 3-3.5 grams, were placed in separate clear glass bottles closed by a cap coated with polytetrafluoroethylene (PTFE). Each bottle was then inserted into a separate black polyethylene (PE) bag, which was tightly closed with a strip fastener. Each bag was then placed in a separate carton box.
# The four (4) samples were stored for three (3) months under the following conditions: • Sample One: 40° C.±2° C. and 75%±5% relative humidity, • Sample Two: 30° C.±2° C. and 60%±5% relative humidity, • Sample Three: 25° C.±2° C. and 60%±5% relative humidity, and • Sample Four: 5° C.±3° C. and ambient relative humidity
# The purity of each sample was determined after storage for one (1), two (2), and three (3) months using HPLC as set forth above (See Methodology and Protocols: End-of-Process Determination of Assay, Purity, and Impurities Other Than Isomalathion, End-of-Process Determination of Isomalathion).
# [1] = Storage at 5° C. ± 3° C. and ambient relative humidity
# [2] = Storage at 25° C. ± 2° C. and 60% ± 5% relative humidity
# [3] = Storage at 30° C. ± 2° C. and 60% ± 5% relative humidity
# [4] = Storage at 40° C. ± 2° C. and 75% ± 5% relative humidity
smiles,measurement,setting,value
CCOC(=O)CC(SP(=S)(OC)OC)C(=O)OCC (stereo not shown) [[(dimethoxyphosphinothioyl)thio]butanedioic acid diethyl ester],Diethyl fumarate Quantity After 1 Month,[1],<0.01 (LOD) % w/w
same,Diethyl fumarate Quantity After 2 Months,[1],<0.01 (LOD) % w/w
same,Diethyl fumarate Quantity After 3 Months,[1],<0.01 (LOD) % w/w
same,Dimethyl malathion Quantity After 1 Month,[1],<0.02 (LOD) % w/w
same,Dimethyl malathion Quantity After 2 Months,[1],<0.02 (LOD) % w/w
same,Dimethyl malathion Quantity After 3 Months,[1],<0.02 (LOD) % w/w
same,Isomalathion Quantity After 1 Month,[1],<0.02 (LOD) % w/w
same,Isomalathion Quantity After 2 Months,[1],<0.03 (LOQ) % w/w
same,Isomalathion Quantity After 3 Months,[1],<0.03 (LOQ) % w/w
same,Malaoxon Quantity After 1 Month,[1],<0.05 (LOD) % w/w
same,Malaoxon Quantity After 2 Months,[1],<0.05 (LOD) % w/w
same,Malaoxon Quantity After 3 Months,[1],<0.05 (LOD) % w/w
same,MeOOSPO Quantity After 1 Month,[1],<0.04 (LOD) % w/w
same,MeOOSPO Quantity After 2 Months,[1],<0.04 (LOD) % w/w
same,MeOOSPO Quantity After 3 Months,[1],<0.04 (LOD) % w/w
same,MeOOSPS Quantity After 1 Month,[1],0.1 % w/w
same,MeOOSPS Quantity After 2 Months,[1],0.1 % w/w
same,MeOOSPS Quantity After 3 Months,[1],0.1 % w/w
same,MeOSSPO Quantity After 1 Month,[1],<0.02 (LOD) % w/w
same,MeOSSPO Quantity After 2 Months,[1],<0.02 (LOD) % w/w
same,MeOSSPO Quantity After 3 Months,[1],<0.02 (LOD) % w/w
same,Methyl malathion Quantity After 1 Month,[1],0.05 % w/w
same,Methyl malathion Quantity After 2 Months,[1],0.06 % w/w
same,Methyl malathion Quantity After 3 Months,[1],0.06 % w/w
same,"O,O-Me, Et Malathion analog Quantity After 1 Month",[1],0.07 % w/w
same,"O,O-Me, Et Malathion analog Quantity After 2 Months",[1],0.07 % w/w
same,"O,O-Me, Et Malathion analog Quantity After 3 Months",[1],0.07 % w/w
same,Tetraethyl dithiodisuccinate Quantity After 1 Month,[1],0.06 % w/w
same,Tetraethyl dithiodisuccinate Quantity After 2 Months,[1],0.06 % w/w
same,Tetraethyl dithiodisuccinate Quantity After 3 Months,[1],0.06 % w/w
same,Unknown (RRT = 0.38) Quantity After 1 Month,[1],0.04 % w/w
same,Unknown (RRT = 0.38) Quantity After 2 Months,[1],0.04 % w/w
same,Unknown (RRT = 0.38) Quantity After 3 Months,[1],0.04 % w/w
same,Diethyl fumarate Quantity After 1 Month,[2],<0.01 (LOD) % w/w
same,Diethyl fumarate Quantity After 2 Months,[2],<0.01 (LOD) % w/w
same,Diethyl fumarate Quantity After 3 Months,[2],<0.01 (LOD) % w/w
same,Dimethyl malathion Quantity After 1 Month,[2],<0.02 (LOD) % w/w
same,Dimethyl malathion Quantity After 2 Months,[2],<0.02 (LOD) % w/w
same,Dimethyl malathion Quantity After 3 Months,[2],<0.02 (LOD) % w/w
same,Isomalathion Quantity After 1 Month,[2],<0.03 (LOQ) % w/w
same,Isomalathion Quantity After 2 Months,[2],<0.02 (LOD) % w/w
same,Isomalathion Quantity After 3 Months,[2],0.04 % w/w
same,Malaoxon Quantity After 1 Month,[2],<0.05 (LOD) % w/w
same,Malaoxon Quantity After 2 Months,[2],<0.05 (LOD) % w/w
same,Malaoxon Quantity After 3 Months,[2],<0.05 (LOD) % w/w
same,MeOOSPO Quantity After 1 Month,[2],<0.04 (LOD) % w/w
same,MeOOSPO Quantity After 2 Months,[2],<0.04 (LOD) % w/w
same,MeOOSPO Quantity After 3 Months,[2],<0.04 (LOD) % w/w
same,MeOOSPS Quantity After 1 Month,[2],0.1 % w/w
same,MeOOSPS Quantity After 2 Months,[2],0.1 % w/w
same,MeOOSPS Quantity After 3 Months,[2],0.1 % w/w
same,MeOSSPO Quantity After 1 Month,[2],<0.02 (LOD) % w/w
same,MeOSSPO Quantity After 2 Months,[2],<0.02 (LOD) % w/w
same,MeOSSPO Quantity After 3 Months,[2],<0.02 (LOD) % w/w
same,Methyl malathion Quantity After 1 Month,[2],0.05 % w/w
same,Methyl malathion Quantity After 2 Months,[2],0.05 % w/w
same,Methyl malathion Quantity After 3 Months,[2],0.06 % w/w
same,"O,O-Me, Et Malathion analog Quantity After 1 Month",[2],0.08 % w/w
same,"O,O-Me, Et Malathion analog Quantity After 2 Months",[2],0.07 % w/w
same,"O,O-Me, Et Malathion analog Quantity After 3 Months",[2],0.07 % w/w
same,Tetraethyl dithiodisuccinate Quantity After 1 Month,[2],0.06 % w/w
same,Tetraethyl dithiodisuccinate Quantity After 2 Months,[2],0.06 % w/w
same,Tetraethyl dithiodisuccinate Quantity After 3 Months,[2],0.06 % w/w
same,Unknown (RRT = 0.27) Quantity After 1 Month,[2],<0.02 (LOD) % w/w
same,Unknown (RRT = 0.27) Quantity After 2 Months,[2],<0.02 (LOD) % w/w
same,Unknown (RRT = 0.27) Quantity After 3 Months,[2],0.06 % w/w
same,Unknown (RRT = 0.38) Quantity After 1 Month,[2],0.04 % w/w
same,Unknown (RRT = 0.38) Quantity After 2 Months,[2],0.04 % w/w
same,Unknown (RRT = 0.38) Quantity After 3 Months,[2],0.04 % w/w
same,Diethyl fumarate Quantity After 1 Month,[3],<0.01 (LOD) % w/w
same,Diethyl fumarate Quantity After 2 Months,[3],<0.01 (LOD) % w/w
same,Diethyl fumarate Quantity After 3 Months,[3],<0.01 (LOD) % w/w
same,Dimethyl malathion Quantity After 1 Month,[3],<0.02 (LOD) % w/w
same,Dimethyl malathion Quantity After 2 Months,[3],<0.02 (LOD) % w/w
same,Dimethyl malathion Quantity After 3 Months,[3],<0.02 (LOD) % w/w
same,Isomalathion Quantity After 1 Month,[3],0.03 % w/w
same,Isomalathion Quantity After 2 Months,[3],0.04 % w/w
same,Isomalathion Quantity After 3 Months,[3],0.06 % w/w
same,Malaoxon Quantity After 1 Month,[3],<0.05 (LOD) % w/w
same,Malaoxon Quantity After 2 Months,[3],<0.05 (LOD) % w/w
same,Malaoxon Quantity After 3 Months,[3],<0.05 (LOD) % w/w
same,MeOOSPO Quantity After 1 Month,[3],<0.04 (LOD) % w/w
same,MeOOSPO Quantity After 2 Months,[3],<0.04 (LOD) % w/w
same,MeOOSPO Quantity After 3 Months,[3],<0.04 (LOD) % w/w
same,MeOOSPS Quantity After 1 Month,[3],0.1 % w/w
same,MeOOSPS Quantity After 2 Months,[3],0.1 % w/w
same,MeOOSPS Quantity After 3 Months,[3],0.1 % w/w
same,MeOSSPO Quantity After 1 Month,[3],<0.02 (LOD) % w/w
same,MeOSSPO Quantity After 2 Months,[3],<0.02 (LOD) % w/w
same,MeOSSPO Quantity After 3 Months,[3],<0.02 (LOD) % w/w
same,Methyl malathion Quantity After 1 Month,[3],0.05 % w/w
same,Methyl malathion Quantity After 2 Months,[3],0.06 % w/w
same,Methyl malathion Quantity After 3 Months,[3],0.06 % w/w
same,"O,O-Me, Et Malathion analog Quantity After 1 Month",[3],0.08 % w/w
same,"O,O-Me, Et Malathion analog Quantity After 2 Months",[3],0.08 % w/w
same,"O,O-Me, Et Malathion analog Quantity After 3 Months",[3],0.07 % w/w
same,Tetraethyl dithiodisuccinate Quantity After 1 Month,[3],0.06 % w/w
same,Tetraethyl dithiodisuccinate Quantity After 2 Months,[3],0.05 % w/w
same,Tetraethyl dithiodisuccinate Quantity After 3 Months,[3],0.06 % w/w
same,Unknown (RRT = 0.06) Quantity After 1 Month,[3],<0.02 (LOD) % w/w
same,Unknown (RRT = 0.06) Quantity After 2 Months,[3],<0.02 (LOD) % w/w
same,Unknown (RRT = 0.06) Quantity After 3 Months,[3],0.04 % w/w
same,Unknown (RRT = 0.27) Quantity After 1 Month,[3],<0.02 (LOD) % w/w
same,Unknown (RRT = 0.27) Quantity After 2 Months,[3],0.07 % w/w
same,Unknown (RRT = 0.27) Quantity After 3 Months,[3],0.15 % w/w
same,Unknown (RRT = 0.38) Quantity After 1 Month,[3],0.04 % w/w
same,Unknown (RRT = 0.38) Quantity After 2 Months,[3],0.04 % w/w
same,Unknown (RRT = 0.38) Quantity After 3 Months,[3],0.04 % w/w
same,Diethyl fumarate Quantity After 1 Month,[4],<0.01 (LOD) % w/w
same,Diethyl fumarate Quantity After 2 Months,[4],<0.01 (LOD) % w/w
same,Diethyl fumarate Quantity After 3 Months,[4],<0.02 (LOQ) % w/w
same,Dimethyl malathion Quantity After 1 Month,[4],<0.02 (LOD) % w/w
same,Dimethyl malathion Quantity After 2 Months,[4],<0.02 (LOD) % w/w
same,Dimethyl malathion Quantity After 3 Months,[4],<0.02 (LOD) % w/w
same,Isomalathion Quantity After 1 Month,[4],0.06 % w/w
same,Isomalathion Quantity After 2 Months,[4],0.1 % w/w
same,Isomalathion Quantity After 3 Months,[4],0.1 % w/w
same,Malaoxon Quantity After 1 Month,[4],<0.05 (LOD) % w/w
same,Malaoxon Quantity After 2 Months,[4],<0.05 (LOD) % w/w
same,Malaoxon Quantity After 3 Months,[4],<0.05 (LOD) % w/w
same,MeOOSPO Quantity After 1 Month,[4],<0.04 (LOD) % w/w
same,MeOOSPO Quantity After 2 Months,[4],<0.04 (LOD) % w/w
same,MeOOSPO Quantity After 3 Months,[4],0.05 % w/w
same,MeOOSPS Quantity After 1 Month,[4],0.1 % w/w
same,MeOOSPS Quantity After 2 Months,[4],0.2 % w/w
same,MeOOSPS Quantity After 3 Months,[4],0.2 % w/w
same,MeOSSPO Quantity After 1 Month,[4],<0.02 (LOD) % w/w
same,MeOSSPO Quantity After 2 Months,[4],<0.02 (LOD) % w/w
same,MeOSSPO Quantity After 3 Months,[4],<0.02 (LOD) % w/w
same,Methyl malathion Quantity After 1 Month,[4],0.06 % w/w
same,Methyl malathion Quantity After 2 Months,[4],0.06 % w/w
same,Methyl malathion Quantity After 3 Months,[4],0.06 % w/w
same,"O,O-Me, Et Malathion analog Quantity After 1 Month",[4],0.08 % w/w
same,"O,O-Me, Et Malathion analog Quantity After 2 Months",[4],0.07 % w/w
same,"O,O-Me, Et Malathion analog Quantity After 3 Months",[4],0.07 % w/w
same,Tetraethyl dithiodisuccinate Quantity After 1 Month,[4],0.06 % w/w
same,Tetraethyl dithiodisuccinate Quantity After 2 Months,[4],0.05 % w/w
same,Tetraethyl dithiodisuccinate Quantity After 3 Months,[4],0.07 % w/w
same,Unknown (RRT = 0.06) Quantity After 1 Month,[4],<0.02 (LOD) % w/w
same,Unknown (RRT = 0.06) Quantity After 2 Months,[4],<0.02 (LOD) % w/w
same,Unknown (RRT = 0.06) Quantity After 3 Months,[4],0.04 % w/w
same,Unknown (RRT = 0.25) Quantity After 1 Month,[4],<0.02 (LOD) % w/w
same,Unknown (RRT = 0.25) Quantity After 2 Months,[4],0.06 % w/w
same,Unknown (RRT = 0.25) Quantity After 3 Months,[4],0.12 % w/w
same,Unknown (RRT = 0.27) Quantity After 1 Month,[4],0.10 % w/w
same,Unknown (RRT = 0.27) Quantity After 2 Months,[4],0.38 % w/w
same,Unknown (RRT = 0.27) Quantity After 3 Months,[4],0.76 % w/w
same,Unknown (RRT = 0.38) Quantity After 1 Month,[4],0.04 % w/w
same,Unknown (RRT = 0.38) Quantity After 2 Months,[4],0.04 % w/w
same,Unknown (RRT = 0.38) Quantity After 3 Months,[4],0.04 % w/w
same,Storage stability (conclusion in words),"three (3) months at 5, 25, 30 and 40° C. conditions",storage stable

# — patent US8957238B2, “Process for preparing malathion for pharmaceutical use” (priority 2005, dated 2015)
